How the values were obtained:
[1] = tested on: T cells derived from 3 donors; assay: NanoString gene expression analysis of T cells treated with ICG-001; type: cell-based; conditions: ICG-001 2.5 or 5 μM
Procedure: FIG. 27. T cells treated with ICG001 2.5 and 5 μM for 24 or 72 h. (A) CAR Ts mock and HER2 from one donor and mock CARs derived from two additional donors were plated on 6-well format plates and treated with ICG001 at concentrations 0-5 μM for 24 or 72 h. Cells were collected from each well, counted, and viability was determined. (B, C) NanoString analysis of T cells treated with ICG-001 to determine concentration-dependent metabolic changes. […] (E) Correlation of differential gene expression in all T cell lines combined at concentration of 2.5 and 5 μM.
Antagonism of WNT/CBP/β-catenin signaling effects CAR T cells. Wnt signaling plays critical roles in T cell development and commitment (Li et al. 2019). Thus, the combined data derived from all T cell lines used and compared with untreated controls was analyzed for each T cell line.
However, at a higher concentration of ICG-001, a higher degree of differential gene expression was observed. […]

[2] = tested on: murine-derived glioma cell lines (K-luc, GL261-parental, and GL261.IL13Rα2 engineered); assay: ICG-001 single agent on murine-derived glioma cell lines (growth kinetics); type: cell-based, mouse; conditions: ICG-001 0-10 μM, 4 days
Procedure: (§1) FIG. 11. (A, B) Growth kinetics of human PBT glioma lines (PBT017, PBT030, PBT135, PBT144, and PBT147) treated with ICG-001 (0-10 μM) for 7 days and (C) mouse glioma cells (GL261, GL261-IL13, and K-luc) treated with ICG-001 (0-10 μM) for 4 days. Red boxes indicate PBT030 and PBT147 cell lines used for Nanostring and proteomics analysis. Scale bars represent S.D. of triplicate samples. (D-F) Growth kinetics of PBT017 (2,500 cells/well) treated with or without HER2-CAR T cells (500 cells/well) and with or without ICG-001 (0-5 μM). The red line is CAR T cell treatment only and the bottom three lines are with ICG-001. Experiment was done in quadruplicate and error bars indicate S.D.
(§2) ICG-001 activity in vitro in human and mouse glioma cell lines. Initially, the effects of the specific CBP/β-catenin antagonist ICG-001 was tested in vitro as a single agent on human and mouse glioma cell lines (5 PBT human and 3 mouse glioma lines).

[3] = biological target: β-catenin/CBP interaction (Homo sapiens, UniProt Q92793); conditions: cited from earlier work
β-catenin/CBP interaction, sequence (Q92793 whole entry): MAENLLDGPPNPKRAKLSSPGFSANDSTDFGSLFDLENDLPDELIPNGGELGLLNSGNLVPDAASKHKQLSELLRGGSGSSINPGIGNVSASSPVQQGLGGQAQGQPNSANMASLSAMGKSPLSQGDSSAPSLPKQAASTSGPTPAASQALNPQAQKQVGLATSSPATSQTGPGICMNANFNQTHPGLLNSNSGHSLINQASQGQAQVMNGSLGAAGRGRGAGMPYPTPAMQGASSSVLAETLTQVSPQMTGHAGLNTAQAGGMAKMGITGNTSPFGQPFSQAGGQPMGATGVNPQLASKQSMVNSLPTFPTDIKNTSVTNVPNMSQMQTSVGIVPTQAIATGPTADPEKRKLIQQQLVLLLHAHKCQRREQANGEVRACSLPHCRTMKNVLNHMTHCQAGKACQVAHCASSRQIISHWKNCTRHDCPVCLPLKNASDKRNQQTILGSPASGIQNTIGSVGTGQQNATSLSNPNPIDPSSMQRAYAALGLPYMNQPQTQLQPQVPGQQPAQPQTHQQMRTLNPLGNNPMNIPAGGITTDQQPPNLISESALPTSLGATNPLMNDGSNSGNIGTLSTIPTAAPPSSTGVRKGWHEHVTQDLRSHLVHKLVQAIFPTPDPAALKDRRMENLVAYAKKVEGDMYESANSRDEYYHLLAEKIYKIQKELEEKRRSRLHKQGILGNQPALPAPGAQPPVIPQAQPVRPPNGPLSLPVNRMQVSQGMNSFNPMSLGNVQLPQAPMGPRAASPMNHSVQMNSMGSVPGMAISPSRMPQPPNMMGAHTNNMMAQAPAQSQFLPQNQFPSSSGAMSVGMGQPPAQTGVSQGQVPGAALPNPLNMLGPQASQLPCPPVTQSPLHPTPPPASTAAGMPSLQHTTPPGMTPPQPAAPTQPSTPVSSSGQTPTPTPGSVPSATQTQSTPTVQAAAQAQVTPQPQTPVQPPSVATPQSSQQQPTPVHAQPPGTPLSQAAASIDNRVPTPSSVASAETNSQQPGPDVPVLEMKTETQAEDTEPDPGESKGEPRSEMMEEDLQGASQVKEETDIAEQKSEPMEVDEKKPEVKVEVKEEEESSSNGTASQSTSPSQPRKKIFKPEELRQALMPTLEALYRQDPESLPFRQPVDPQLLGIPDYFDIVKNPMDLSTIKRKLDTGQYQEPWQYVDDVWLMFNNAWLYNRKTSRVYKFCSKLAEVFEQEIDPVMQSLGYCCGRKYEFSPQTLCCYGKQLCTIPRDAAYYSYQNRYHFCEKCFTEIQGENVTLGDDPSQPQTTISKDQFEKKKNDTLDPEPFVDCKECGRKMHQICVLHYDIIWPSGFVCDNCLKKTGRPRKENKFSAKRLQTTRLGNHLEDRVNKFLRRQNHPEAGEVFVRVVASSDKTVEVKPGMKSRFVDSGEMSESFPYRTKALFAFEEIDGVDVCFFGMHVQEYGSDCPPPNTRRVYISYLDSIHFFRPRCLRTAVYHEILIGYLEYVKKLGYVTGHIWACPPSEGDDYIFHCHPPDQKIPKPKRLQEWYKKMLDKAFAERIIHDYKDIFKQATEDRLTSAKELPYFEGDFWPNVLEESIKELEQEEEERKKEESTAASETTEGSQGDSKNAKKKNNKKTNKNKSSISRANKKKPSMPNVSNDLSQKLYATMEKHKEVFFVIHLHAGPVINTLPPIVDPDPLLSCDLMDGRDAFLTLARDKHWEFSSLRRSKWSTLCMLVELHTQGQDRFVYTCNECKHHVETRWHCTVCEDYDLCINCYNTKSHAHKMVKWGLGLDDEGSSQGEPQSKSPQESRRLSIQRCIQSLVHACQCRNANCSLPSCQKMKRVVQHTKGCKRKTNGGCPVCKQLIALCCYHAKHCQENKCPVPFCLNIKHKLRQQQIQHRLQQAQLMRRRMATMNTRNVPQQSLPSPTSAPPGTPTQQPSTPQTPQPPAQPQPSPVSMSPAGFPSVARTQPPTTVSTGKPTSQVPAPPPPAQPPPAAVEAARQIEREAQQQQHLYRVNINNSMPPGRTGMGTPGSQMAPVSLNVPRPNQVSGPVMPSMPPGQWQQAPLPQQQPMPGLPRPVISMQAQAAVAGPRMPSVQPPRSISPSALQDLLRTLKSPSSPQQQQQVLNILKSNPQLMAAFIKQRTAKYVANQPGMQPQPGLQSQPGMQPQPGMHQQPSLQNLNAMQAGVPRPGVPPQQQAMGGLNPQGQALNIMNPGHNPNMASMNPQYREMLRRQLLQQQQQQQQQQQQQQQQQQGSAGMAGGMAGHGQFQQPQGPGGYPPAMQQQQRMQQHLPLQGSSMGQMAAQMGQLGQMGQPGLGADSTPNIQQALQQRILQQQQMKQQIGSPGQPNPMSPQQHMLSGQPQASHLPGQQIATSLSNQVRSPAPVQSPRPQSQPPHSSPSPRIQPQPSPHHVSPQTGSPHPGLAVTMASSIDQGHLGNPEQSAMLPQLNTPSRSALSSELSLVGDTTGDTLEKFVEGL

[4] = tested on: human patient-derived glioma (PBT017, PBT030, PBT135, PBT144, and PBT147); assay: ICG-001 single agent on human patient-derived glioma cell lines (growth kinetics, morphology); type: cell-based
Procedure: FIG. 2. Combinational strategy of CAR T cell-mediated tumor-antigen targeting with ICG-001 induced differentiation in glioma. […] (B) Cytotoxicity of HER2 CAR-T cells and tumor cells (1:5 ratio) was enhanced by ICG-001 at concentrations 1.25-5 μM. (C) Treatment of PBT138 patient glioma tumors with CAR T IL13Rα2+/−ICG-001.
as §1
PBT tumor cells lines are patient derived tumors dissociated and grown in DMEM/F12 medium, supplemented with heparin, hepes, glutamax and B27. EFG and FGF is added at the time of the culture as described previously (Brown et al. 2009). ICG-001 was kindly provided by another laboratory.
In vitro experiments. Co-culture assay of PBT cell lines grown as described above and seeded to 100,000 cells/2 ml in 6 well plates. ICG-001 is added to the cell culture in concentrations […] for 24-72 h, as described previously (Brown et al. 2013).
as §2

[5] = tested on: Wnt target genes BIRC5/Survivin and EphB2; assay: Quantitative RT-PCR of Wnt target genes in mouse glioma cell lines; type: cell-based
Procedure: FIG. 15. Expression of target genes post-ICG-001 treatment (0-10 μM) by RT-PCR using (A-C) mouse Survivin in GL261-IL13, GL261, and K-luc cells. (D) Survivin in PBT147 human glioma cells. (E, F) Luciferase reporter assay indicating downregulation of Survivin/BIRC5 in PBT017 and PBT030 cell lines.
FIG. 16 is a table showing the expression of the target genes survivin/BIRC5 post-ICG-001 treatment ([…]) as detected by RT-PCR and Luciferase Reporter Assay.
ICG-001 differentially affects the expression of the Wnt target genes BIRC5/Survivin and EphB2 in vitro. […] The effects of ICG-001 on Wnt/CBP/β-catenin signaling were further confirmed using a Survivin-luciferase reporter assay (FIG. 15). ICG-001's selective effects on the expression of Survivin and EphB2 may serve as indicators of ICG-001 on target tissue activity in vivo (FIG. 16) and a readout for pharmacokinetics/pharmacodynamics (PK/PD) as used previously in clinical trials with the second-generation CBP/β-catenin specific antagonist PRI-724 (Anthony et al. 2013).

For `O=C1[C@H](Cc2ccc(O)cc2)N2C(=O)CCN(C(=O)NCc3ccccc3)[C@H]2CN1Cc1cccc2ccccc12` [ICG-001], the T cell differentiation [1] was “directed T cell differentiation into multiple types of effector and memory T cells”, the “expression of DPP4, CD48, CEBPB, B2M, ICOSLG, CD81, CXCR4, XBP1, NFIL3, and others in T cells” value ([1]; 24 or 72 h) was “upregulation of key genes” and the “effect on cell growth (growth kinetics)” value [2] was “concentration dependent cytostatic effect”. The “blockade of β-catenin/CBP versus β-catenin/p300 interaction” value [3] was “selectively blocks the β-catenin/CBP interaction without interfering with the β-catenin/p300 interaction”, the “effect on cell growth (growth kinetics)” value ([4]; ICG-001 0-10 μM, 7 days, PBT017, PBT030, PBT135, PBT144, PBT147) was “concentration dependent cytostatic effect” and the “differentiation and growth of PBT017 glioma cells” value ([4]; ICG-001 0.75-10 μM, PBT017) was “differentiation and cell growth arrest”. The morphological phenotype ([4]; all glioma lines, demonstrated with PBT017.RFP) was “less proliferative and more differentiated phenotype”, the “expression of Wnt/p300/β-catenin target gene EphB2” value [5] was “upregulating” and the “expression of Wnt/CBP/β-catenin target gene BIRC5/Survivin” value ([5]; ICG-001 0-10 μM) was “selectively downregulated”.
